Data set [1] is described as follows: Liver microsomal stability, rat liver microsomes. In kind it is in vitro ADME. The note with it: 1 μM compound, NADPH, read-out: t1/2 (min) in RLM. The procedure, abridged: (§1)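 Compound (1 μM final) was incubated with prewarmed human or rat liver microsomes (1 mg/mL in 100 mM phosphate master mix) plus NADPH; aliquots at 0.5–30 minutes were quenched in cold acetonitrile and quantified by LC-MS/MS. Half-life came from the ln(% remaining) versus time slope, converted to CLint (μL/min/mg prot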

The nature of data set [2]: ADME solubility determination at pH 2.0 and pH 7.4. In kind it is physicochemical. The note with it: aqueous buffer, thermodynamic from solid, LC-MS/MS. The essentials: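 Dried residues of 10 mM DMSO stocks were shaken in PBS pH 7.4 or pH 2.0 for 24 hours at 25° C. and 1,100 rpm. After centrifugation, supernatants were quantified by LC-MS/MS against a standard of known concentration, applying a dilution factor.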

Data set [3] is described as follows: Liver microsomal stability, human liver microsomes. In kind it is in vitro ADME. The note with it: 1 μM compound, NADPH, read-out: t1/2 (min) in HLM. The procedure, abridged: as §1
In general terms: Liver microsomes are vesicles of endoplasmic reticulum, rich in cytochrome P450 enzymes.

Setting [4] is: PBS pH 2.0, shaken at 25° C. for 24 hours, read-out: Solubility at pH 2.0.
The mark [5] stands for this setting: PBS pH 7.4, shaken at 25° C. for 24 hours, read-out: Solubility at pH 7.4.

The values that follow come from patent US11485736B2 (KSQ Therapeutics, Inc., priority 2018, dated 2022).

Each structure is given as a SMILES string. Where two headings read alike, the source gives them in different places.

For orientation: solubility means how much of the substance goes into solution per volume. In the case of `CCc1nc2cnc(-c3c(OC)ncnc3C3CC3)nc2n1Cc1ccc(-n2nc(C(F)(F)F)cc2C)cc1` [Example 209, 2-(4-cyclopropyl-6-methoxypyrimidin-5-yl)-8-ethyl-9-(4-(5-methyl-3-(trifluoromethyl)-1H-pyrazol-1-yl)benzyl)-9H-purine], the half-life at 1 μM was over 25 min in data set [1] and under 25 min in data set [3]. Moreover, the solubility at 24 h in data set [2] (setting [4]) and in data set [2] (setting [5]) was over 10 µM throughout.
Regarding `COc1nc(C)nc(C2CC2)c1-c1ncc2cnn(Cc3ccc(-c4nc(C(F)(F)F)cn4C)cc3)c2n1` [Example 133, 6-(4-Cyclopropyl-6-methoxy-2-methylpyrimidin-5-yl)-1-(4-(1-methyl-4-(trifluoromethyl)-1H-imidazol-2-yl)benzyl)-1H-pyrazolo[3,4-d]pyrimidine], the half-life at 1 μM in data set [1] and in data set [3] was under 25 min each time. Further, the solubility at 24 h in data set [2] (setting [4]) and in data set [2] (setting [5]) was over 10 µM each time.
For the compound `CSc1cccc(C)c1-c1ncc2cnn(Cc3ccc(-c4nc(C(F)(F)F)cn4C)cc3)c2n1` [Example 21], the half-life at 1 μM in data set [1] and in data set [3] was under 25 min in each case. Besides, the solubility at 24 h in data set [2] (setting [4]) and in data set [2] (setting [5]) was under 10 µM throughout.
As to `CCn1cc(C(F)(F)F)nc1-c1ccc(Cn2ncc3cnc(-c4c(OC)ncnc4C4CC4)nc32)cc1OC` [Example 128], the half-life at 1 μM was under 25 min in data set [1] and over 25 min in data set [3]. For the same compound, the solubility at 24 h in data set [2] (setting [4]) and in data set [2] (setting [5]) was over 10 µM in each case.
Consider `COc1ncnc(C2CC2)c1-c1ncc2cnn([C@@H](C)c3ccc(-c4nc(C(F)(F)F)cn4CCF)cc3)c2n1` [Example 169], for which the half-life at 1 μM in data set [1] and in data set [3] was over 25 min in each case. Further, the solubility at 24 h in data set [2] (setting [4]) was over 10 µM; in data set [2] (setting [5]), under 10 µM.
For `CCn1cc(C(F)(F)F)nc1-c1ccc(Cn2ncc3cnc(-c4c(OC(C)(C)C)ncnc4C4CC4)nc32)cc1` [Example 59], the half-life at 1 μM in data set [1] and in data set [3] was under 25 min each time. Also, the solubility at 24 h in data set [2] (setting [4]) and in data set [2] (setting [5]) was under 10 µM in each case.
Consider `COc1cc(Cn2ncc3cnc(-c4c(OC)ncnc4C4CC4)nc32)ccc1-c1nc(C(F)(F)F)cn1CCF` [Example 129], for which the half-life at 1 μM in data set [1] and in data set [3] was over 25 min in each case. The solubility at 24 h in data set [2] (setting [4]) was over 10 µM; in data set [2] (setting [5]), under 10 µM.
For `CC(C)c1c(F)cccc1-c1ncc2cnn(Cc3ccc(-c4nc(C(F)(F)F)cn4C)cc3)c2n1` [Example 10, 6-(3-fluoro-2-isopropylphenyl)-1-(4-(1-methyl-4-(trifluoromethyl)-1H-imidazol-2-yl)benzyl)-1H-pyrazolo[3,4-d]pyrimidine], the half-life at 1 μM in data set [1] and in data set [3] was under 25 min each time. For the same compound, the solubility at 24 h in data set [2] (setting [4]) and in data set [2] (setting [5]) was under 10 µM each time.
For `Cc1cc(C(F)(F)F)nn1-c1ccc(Cn2ncc3cnc(-c4cccnc4C(C)C)nc32)cc1` [Example 26], the half-life at 1 μM in data set [1] was under 25 min; in data set [3] it was over 25 min. Moreover, the solubility at 24 h was over 10 µM in data set [2] (setting [4]) and under 10 µM in data set [2] (setting [5]).
Take `COCCOc1cc(C(F)(F)F)nn1-c1ccc(Cn2ncc3cnc(-c4c(OC)ncnc4C4CC4)nc32)cc1` [Example 77]: the half-life at 1 μM in data set [1] and in data set [3] was under 25 min in each case. Besides, the solubility at 24 h in data set [2] (setting [4]) and in data set [2] (setting [5]) was under 10 µM throughout.
Turning to `COc1ncnc(C2CC2)c1-c1ncc2cnn(Cc3ccc(-c4nc(C(F)(F)F)cn4C4CCC4)cc3)c2n1` [Example 144], the results for the half-life at 1 μM in data set [1] and in data set [3] were under 25 min and over 25 min, respectively. The solubility at 24 h in data set [2] (setting [4]) and in data set [2] (setting [5]) was under 10 µM throughout.
